Reference: PMC12736120, “First-in-Human Phase I Clinical Trial of SLC-391, a Novel and Selective AXL Inhibitor, in Patients with Advanced Solid Tumours” (Pharmaceuticals, 2025)

Assay: Phase I safety and tolerability (DLTs, adverse events, laboratory, ECG)
Assay type: in vivo
Protocol: This study employed a standard 3 + 3 dose escalation design with a starting dose of 25 mg QD. […] Dose escalation decisions took into account all available data from evaluable subjects as well as PK and the safety profile of prior dose cohorts. […] There was a minimum 5-day stagger between dosing of the first and second subjects in each dose cohort. Dose escalation decisions were made by a data review committee (DRC) composed of, at minimum, the medical monitor, at least one principal investigator, and a sponsor representative, per the study DRC Plan. Dose escalation could continue until 2 or more subjects in the same dose cohort experienced a dose-limiting toxicity (DLT). DLTs were defined as Grade 3 or 4 adverse drug reactions (ADRs), with grades as defined in the National Cancer Institute Common Toxicity Criteria for Adverse Events (NCI-CTCAE) version 5.0. […] The MTD was defined as the highest dose at which no more than 1 of 6 subjects experienced a DLT during cycle 1 of the study drug. The MTD would have been exceeded if 2 or more subjects in a dose cohort of up to 6 subjects experienced a DLT. Subjects could continue treatment until disease progression, unacceptable toxicity, death, withdrawal of consent, or loss to follow-up.
Before enrolment in the study, all patients received a detailed medical history and physical examination. Clinical laboratory evaluations included clinical chemistry, complete blood count, urinalysis, coagulation factors, and a lipid panel. Other safety assessments included vital signs, physical examination, electrocardiogram, and echocardiogram with multigated acquisition (ECHO/MUGA). Safety assessments were performed on days 1, 8, 15, and 21 of cycle 1, and on day 1 of cycles 2 to 6.

[1] = Grade 3, Overall Study (N = 35)
[2] = Grade All, Overall BID (N = 15)

## Nc1ncc(-c2cnn(C3CCNCC3)c2)cc1-c1nnc(CC2CC2)o1 [SLC-391, 3-(5-[cyclopropylmethyl]-1,3,4-oxadiazol-2-yl)-5-(1-[piperidin-4-yl]-1H-pyrazol-4-yl)-pyridin-2-amine]
Grade 3, Overall BID (N = 15)
  TEAE: Metabolism and nutrition disorders: 0 n (%)
  TEAE: Musculoskeletal and connective tissue disorders: 1 (6.7) n (%)
  TEAE: Nausea: 0 n (%)
  TEAE: Renal and urinary disorders: 1 (6.7) n (%)
  TEAE: Respiratory, thoracic, and mediastinal disorders: 0 n (%)
  TEAE: Skin and subcutaneous tissue disorders: 1 (6.7) n (%)
  TEAE: Vascular disorders: 1 (6.7) n (%)
  TEAE: Vomiting: 0 n (%)
Grade 3, Overall QD (N = 20)
  Any treatment-emergent adverse event (TEAE): 6 (30.0) n (%)
  TEAE: Blood and lymphatic system disorders: 1 (5.0) n (%)
  TEAE: Diarrhoea: 0 n (%)
  TEAE: Dyspnoea: 1 (5.0) n (%)
  TEAE: Fatigue: 0 n (%)
  TEAE: Gastrointestinal disorders: 3 (15.0) n (%)
  TEAE: General disorders and administration site conditions: 0 n (%)
  TEAE: Infections and infestations: 1 (5.0) n (%)
  TEAE: Metabolism and nutrition disorders: 2 (10.0) n (%)
  TEAE: Musculoskeletal and connective tissue disorders: 1 (5.0) n (%)
  TEAE: Nausea: 1 (5.0) n (%)
  TEAE: Renal and urinary disorders: 0 n (%)
  TEAE: Respiratory, thoracic, and mediastinal disorders: 2 (10.0) n (%)
  TEAE: Skin and subcutaneous tissue disorders: 0 n (%)
  TEAE: Vascular disorders: 1 (5.0) n (%)
  TEAE: Vomiting: 1 (5.0) n (%)
[1]
  Any treatment-emergent adverse event (TEAE): 12 (34.3) n (%)
  TEAE: Blood and lymphatic system disorders: 2 (5.7) n (%)
  TEAE: Diarrhoea: 1 (2.9) n (%)
  TEAE: Dyspnoea: 1 (2.9) n (%)
  TEAE: Fatigue: 1 (2.9) n (%)
  TEAE: Gastrointestinal disorders: 4 (11.4) n (%)
  TEAE: General disorders and administration site conditions: 1 (2.9) n (%)
  TEAE: Infections and infestations: 2 (5.7) n (%)
  TEAE: Metabolism and nutrition disorders: 2 (5.7) n (%)
  TEAE: Musculoskeletal and connective tissue disorders: 2 (5.7) n (%)
  TEAE: Nausea: 1 (2.9) n (%)
  TEAE: Renal and urinary disorders: 1 (2.9) n (%)
  TEAE: Respiratory, thoracic, and mediastinal disorders: 2 (5.7) n (%)
  TEAE: Skin and subcutaneous tissue disorders: 1 (2.9) n (%)
  TEAE: Vascular disorders: 2 (5.7) n (%)
  TEAE: Vomiting: 1 (2.9) n (%)
[2]
  Any treatment-emergent adverse event (TEAE): 15 (100.0) n (%)
  TEAE: Abdominal distension: 3 (20.0) n (%)
  TEAE: Abdominal pain: 0 n (%)
  TEAE: Back pain: 2 (13.3) n (%)
  TEAE: Blood and lymphatic system disorders: 2 (13.3) n (%)
  TEAE: Chills: 4 (26.7) n (%)
  TEAE: Constipation: 7 (46.7) n (%)
  TEAE: Cough: 3 (20.0) n (%)
  TEAE: Decreased appetite: 5 (33.3) n (%)
  TEAE: Diarrhoea: 9 (60.0) n (%)
  TEAE: Dizziness: 0 n (%)
  TEAE: Dysgeusia: 2 (13.3) n (%)
  TEAE: Dyspnoea: 5 (33.3) n (%)
  TEAE: Fatigue: 10 (66.7) n (%)
  TEAE: Gastrointestinal disorders: 13 (86.7) n (%)
  TEAE: General disorders and administration site conditions: 12 (80.0) n (%)
  TEAE: Haematuria: 4 (26.7) n (%)
  TEAE: Headache: 3 (20.0) n (%)
  TEAE: Infections and infestations: 7 (46.7) n (%)
  TEAE: Investigations: 3 (20.0) n (%)
  TEAE: Metabolism and nutrition disorders: 5 (33.3) n (%)
  TEAE: Musculoskeletal and connective tissue disorders: 6 (40.0) n (%)
  TEAE: Nausea: 11 (73.3) n (%)
  TEAE: Nervous system disorders: 5 (33.3) n (%)
